# In patent US10295551B2, “Development and use of fluorescent probes of unbound bilirubin” (Alan Marc Kleinfeld, priority 2011, dated 2019):
# pKd: −log10 of the molar value. Read-outs that look alike come from different tables or passages of the source.
# Tests used:
# [1] = biological target: T1, rI-FABP (SEQ ID NO: 3) variant L2P14 F7-KR14 - K27C, KR14-18G 27C 31M 72A (Rattus norvegicus, UniProt P02693, G32M/K101R/K126R/K17R/K21R/K28C/K30R/K38R/K47R/K51R/K89R/K8R/K93R/K95R/L73A/M19G); test: bilirubin binding to L2P14F7-KR14-K27C probe; details: Table 5, acrylodan
# T1 construct: made in house
# T1 sequence (P02693 with tags, fused parts or gaps with the stated changes): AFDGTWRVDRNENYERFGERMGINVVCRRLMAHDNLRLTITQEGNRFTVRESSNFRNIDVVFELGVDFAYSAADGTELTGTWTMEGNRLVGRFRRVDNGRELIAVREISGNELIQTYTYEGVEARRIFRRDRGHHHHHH
# Experimental: (§1) Also described are analytical/mathematical methods for calibrating and using the bilirubin probes. Bilirubin probes are calibrated to determine their binding affinity for bilirubin (dissociation constant Kd) under conditions, such as temperature, pH and solution composition, that correspond to samples in which it is desired to know the unbound bilirubin concentration. Binding isotherms are performed in aqueous buffer by measuring the change in fluorescence of the bilirubin probes in response to increasing bilirubin concentrations (“titration data”). The set of fluorescence responses at each bilirubin concentration are fitted with an appropriate equation (“calibration equation”) that correctly describes the fluorescence response as a function of the bilirubin concentration, the probe concentration, specific spectroscopic characteristics, and the Kd.
# [2] = biological target: T2, rI-FABP (SEQ ID NO: 3) variant L10P9 E6, 14T 18L 73M 117C 72A (Rattus norvegicus, UniProt P02693, A74M/L73A/M19L/Y118C/Y15T); test: bilirubin binding to L10P9E6 probe; details: Table 5, acrylodan
# T2 construct: made in house
# T2 sequence (P02693 with tags, fused parts or gaps Y15T/M19L/L73A/A74M/Y118C): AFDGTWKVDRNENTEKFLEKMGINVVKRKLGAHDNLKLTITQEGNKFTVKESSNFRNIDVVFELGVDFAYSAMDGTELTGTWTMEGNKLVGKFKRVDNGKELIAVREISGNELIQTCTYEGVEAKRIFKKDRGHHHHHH
# Experimental: as §1
# [3] = biological target: T3, rI-FABP (SEQ ID NO: 3) variant L24P19C7-K27C, 14R 18L 27C 38V 60R 73F 106C 115R 117D (Rattus norvegicus, UniProt P02693, A74F/K28C/L39V/L73A/M19L/Q116R/R107C/V61R/Y118D/Y15R); test: bilirubin binding to L24P19C7-K27C probe; details: Table 5, acrylodan
# T3 construct: made in house
# T3 sequence (P02693 with tags, fused parts or gaps Y15R/M19L/K28C/L39V/V61R/L73A/A74F/R107C/Q116R/Y118D): as the sequence (P02693 with tags, fused parts or gaps Y15T/M19L/L73A/A74M/Y118C) above, with T14R, K27C, L38V, V60R, M73F, R106C, Q115R, C117D counted along it
# Experimental: as §1
# [4] = biological target: T4, rI-FABP (SEQ ID NO: 3) variant L24P19 C7 K27K 30C, 14R 18L 30C 38V 60R 73F 106C 115R 117D (Rattus norvegicus, UniProt P02693, A74F/L31C/L39V/L73A/M19L/Q116R/R107C/V61R/Y118D/Y15R); test: bilirubin binding to L24P19C7 30C probe; details: Table 5, acrylodan
# T4 construct: made in house
# T4 sequence (P02693 with tags, fused parts or gaps Y15R/M19L/L31C/L39V/V61R/L73A/A74F/R107C/Q116R/Y118D): as the sequence (P02693 with tags, fused parts or gaps Y15T/M19L/L73A/A74M/Y118C) above, with T14R, L30C, L38V, V60R, M73F, R106C, Q115R, C117D counted along it
# Experimental: as §1
# . […] The optimal probe performance was obtained with cysteine at positions 25 or 26.
# [5] = biological target: T5, rI-FABP (SEQ ID NO: 3) variant BL22P1 B11 - 24C, MGI - KR14 - 14R 18L 24C 27A 38V 60R 73F 106L 115R 117D (Rattus norvegicus, UniProt P02693, A74F/K101R/K126R/K17R/K21R/K28A/K30R/K38R/K47R/K51R/K89R/K8R/K93R/K95R/L39V/L73A/M19L/N25C/Q116R/R107L/V61R/Y118D/Y15R); assay type: binding; details: Table 5, Alexa Fluor 680 C2-maleimide
# T5 construct: 6xHis (C); made in house
# T5 sequence (P02693 with tags, fused parts or gaps with the stated changes): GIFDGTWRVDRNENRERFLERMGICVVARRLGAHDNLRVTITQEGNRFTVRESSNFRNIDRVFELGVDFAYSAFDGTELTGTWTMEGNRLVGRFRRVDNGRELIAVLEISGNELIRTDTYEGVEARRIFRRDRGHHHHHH
# Experimental: as §1
# [6] = biological target: T6, rI-FABP (SEQ ID NO: 3) variant BL22P1 B11 - 26C, MGI - KR14 - Y14R M18L V26C K27A L38V V60R A73F R106L Q115R Y117D (Rattus norvegicus, UniProt P02693, A74F/K101R/K126R/K17R/K21R/K28A/K30R/K38R/K47R/K51R/K89R/K8R/K93R/K95R/L39V/L73A/M19L/Q116R/R107L/V27C/V61R/Y118D/Y15R); assay type: binding; details: Table 5, Alexa Fluor 680 C2-maleimide
# T6 construct: 6xHis (C); made in house
# T6 sequence (P02693 with tags, fused parts or gaps with the stated changes): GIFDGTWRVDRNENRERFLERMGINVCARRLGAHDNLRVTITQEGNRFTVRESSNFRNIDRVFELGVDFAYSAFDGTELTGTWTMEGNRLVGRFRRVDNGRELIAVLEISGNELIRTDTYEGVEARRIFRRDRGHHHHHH
# Experimental: as §1
# [7] = biological target: T7, rI-FABP (SEQ ID NO: 3) variant BL22P1 B11 - 27C, MGI - KR14 - Y14R M18L K27C L38V V60R A73F R106L Q115R Y117D (Rattus norvegicus, UniProt P02693, A74F/K101R/K126R/K17R/K21R/K28C/K30R/K38R/K47R/K51R/K89R/K8R/K93R/K95R/L39V/L73A/M19L/Q116R/R107L/V61R/Y118D/Y15R); assay type: binding
# T7 construct: 6xHis (C); made in house
# T7 sequence (P02693 with tags, fused parts or gaps with the stated changes): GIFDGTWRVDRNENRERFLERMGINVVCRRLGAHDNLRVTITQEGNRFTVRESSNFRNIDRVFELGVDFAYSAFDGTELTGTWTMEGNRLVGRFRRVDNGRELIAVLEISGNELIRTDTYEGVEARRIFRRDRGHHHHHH
# Experimental: as §1
# [8] = biological target: T8, rI-FABP (SEQ ID NO: 3) variant BL22P1 B11 - 29C, MGI - KR14 - 14R 18L 27A 29C 38V 60R 73F 106L 115R 117D (Rattus norvegicus, UniProt P02693, A74F/K101R/K126R/K17R/K21R/K28A/K30C/K38R/K47R/K51R/K89R/K8R/K93R/K95R/L39V/L73A/M19L/Q116R/R107L/V61R/Y118D/Y15R); assay type: binding; details: Table 5, Alexa Fluor 680 C2-maleimide
# T8 construct: 6xHis (C); made in house
# T8 sequence (P02693 with tags, fused parts or gaps with the stated changes): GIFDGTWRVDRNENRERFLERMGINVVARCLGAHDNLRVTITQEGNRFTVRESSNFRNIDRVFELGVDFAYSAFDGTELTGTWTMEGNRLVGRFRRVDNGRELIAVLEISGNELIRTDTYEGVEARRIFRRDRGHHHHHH
# Experimental: as §1
# [9] = biological target: T9, rI-FABP (SEQ ID NO: 3) variant BL22P1 B11 - 33C, MGI - KR14 - 14R 18L 27A 33C 38V 60R 73F 106L 115R 117D (Rattus norvegicus, UniProt P02693, A74F/H34C/K101R/K126R/K17R/K21R/K28A/K30R/K38R/K47R/K51R/K89R/K8R/K93R/K95R/L39V/L73A/M19L/Q116R/R107L/V61R/Y118D/Y15R); assay type: binding
# T9 construct: 6xHis (C); made in house
# T9 sequence (P02693 with tags, fused parts or gaps with the stated changes): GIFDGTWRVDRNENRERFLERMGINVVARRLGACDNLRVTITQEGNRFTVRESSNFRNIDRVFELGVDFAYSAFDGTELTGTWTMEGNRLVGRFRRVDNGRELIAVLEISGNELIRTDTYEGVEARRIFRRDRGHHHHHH
# Experimental: as §1
# [10] = biological target: T10, rI-FABP (SEQ ID NO: 3) variant BL22P1 B11 - 54C, MGI - KR14 - 14R 18L 27A 38V 54C 60R 73F 106L 115R 117D (Rattus norvegicus, UniProt P02693, A74F/K101R/K126R/K17R/K21R/K28A/K30R/K38R/K47R/K51R/K89R/K8R/K93R/K95R/L39V/L73A/M19L/N55C/Q116R/R107L/V61R/Y118D/Y15R); assay type: binding; details: Table 5, Alexa Fluor 680 C2-maleimide
# T10 construct: 6xHis (C); made in house
# T10 sequence (P02693 with tags, fused parts or gaps with the stated changes): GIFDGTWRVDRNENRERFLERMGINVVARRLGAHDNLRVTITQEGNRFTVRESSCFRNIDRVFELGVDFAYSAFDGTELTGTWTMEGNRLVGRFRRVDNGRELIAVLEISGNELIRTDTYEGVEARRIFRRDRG
# Experimental: as §1
# [11] = biological target: T11, rI-FABP (SEQ ID NO: 3) variant BL22P1 B11 - 74C, MGI - KR14 - 14R 18L 27A 38V 60R 73F 74C 106L 115R 117D (Rattus norvegicus, UniProt P02693, A74F/D75C/K101R/K126R/K17R/K21R/K28A/K30R/K38R/K47R/K51R/K89R/K8R/K93R/K95R/L39V/L73A/M19L/Q116R/R107L/V61R/Y118D/Y15R); assay type: binding; details: Table 5, Alexa Fluor 680 C2-maleimide
# T11 construct: 6xHis (C); made in house
# T11 sequence (P02693 with tags, fused parts or gaps with the stated changes): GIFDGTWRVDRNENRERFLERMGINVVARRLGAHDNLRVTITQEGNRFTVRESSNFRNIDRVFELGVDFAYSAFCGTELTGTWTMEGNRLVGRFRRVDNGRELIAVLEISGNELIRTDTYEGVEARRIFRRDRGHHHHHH
# Experimental: as §1
# [12] = Table 5, Alexa Fluor 680 C2-maleimide
# [13] = Table 5, Alexa Fluor 750 C5-maleimide
structure (smiles),measurement,setting,value
C=CC1=C(C)/C(=C/c2[nH]c(Cc3[nH]c(/C=C4\NC(=O)C(C)=C4C=C)c(C)c3CCC(=O)O)c(CCC(=O)O)c2C)NC1=O [bilirubin],pKd,[1],6.28
same,pKd,[2],5.84
same,pKd,[3],6.62
same,pKd,[4],7.59
same,pKd,[5],7.14
same,pKd,[6],6.71
same,pKd,[7]; [12],7.15
same,pKd,[7]; [13],6.81
same,pKd,[8],6.93
same,pKd,[9]; [12],6.60
same,pKd,[9]; [13],6.92
same,pKd,[10],6.80
same,pKd,[11],6.80
